{"source": "patent US12391697B2", "about": "“Condensed bi-heterocycles as inhibiting agents for Bruton's tyrosine kinase” (BIOGEN MA INC., priority 2019, dated 2025)", "note": "Where a name gives a salt, the structure may show the parent alone.", "data": [{"target": "BTK (Homo sapiens (Human), UniProt Q06187)", "sequence (Q06187 whole entry)": "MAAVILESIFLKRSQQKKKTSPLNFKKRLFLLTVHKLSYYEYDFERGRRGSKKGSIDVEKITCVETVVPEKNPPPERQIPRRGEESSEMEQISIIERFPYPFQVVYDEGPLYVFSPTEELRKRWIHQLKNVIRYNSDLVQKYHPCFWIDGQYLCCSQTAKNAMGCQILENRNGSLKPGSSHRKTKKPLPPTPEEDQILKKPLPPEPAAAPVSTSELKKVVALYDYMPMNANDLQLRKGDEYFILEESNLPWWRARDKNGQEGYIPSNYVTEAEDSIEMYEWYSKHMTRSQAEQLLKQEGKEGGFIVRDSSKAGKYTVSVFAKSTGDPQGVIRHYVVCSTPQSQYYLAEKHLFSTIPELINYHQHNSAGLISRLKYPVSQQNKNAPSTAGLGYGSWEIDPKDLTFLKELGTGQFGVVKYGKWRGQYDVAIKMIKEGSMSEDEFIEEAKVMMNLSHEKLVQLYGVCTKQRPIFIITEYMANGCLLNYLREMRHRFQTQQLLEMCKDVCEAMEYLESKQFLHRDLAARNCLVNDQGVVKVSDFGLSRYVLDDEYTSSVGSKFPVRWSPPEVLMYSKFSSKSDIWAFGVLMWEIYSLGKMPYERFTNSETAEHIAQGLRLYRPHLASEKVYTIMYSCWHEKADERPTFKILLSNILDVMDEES", "assay": "In Vitro BTK Kinase Assay: Btk-PolyGAT-LS Assay", "format": "biochemical", "settings": "active BTK enzyme 0.25 nM, ATP 10 μM, polyGAT 100 nM, 30 minutes", "description": "In Vitro BTK Kinase Assay: Btk-PolyGAT-LS Assay\nThe purpose of the BTK in vitro assay is to determine compound potency against BTK through the measurement of IC50. […] The BTK kinase reaction was done in a black 96 well plate (costar 3694). For a typical assay, a […] aliquot of a ATP/peptide master mix (final concentration; ATP 10 μM, polyGAT 100 nM) in kinase buffer (10 mM Tris-HCl pH 7.5, 10 mM MgCl2, 200 μM […], 5 mM DTT, 0.01% Triton X-100, and 0.2 mg/ml casein) is added to each well. Next, […] of a 4-fold, 40× compound titration in 100% DMSO solvent is added, followed by adding 15 uL of BTK enzyme mix in 1× kinase buffer (with a final concentration of 0.25 nM). The assay is incubated for 30 minutes before being stopped with […] of a 50 mM EDTA solution. Aliquots (5 uL) of the kinase reaction are transferred to a low volume white 384 well plate (Corning 3674), and […] of a 2× detection buffer (Invitrogen PV3574, with 4 nM Tb-PY20 antibody, Invitrogen PV3552) is added. The plate is covered and incubated for 45 minutes at room temperature. Time resolved fluorescence (TRF) on Molecular Devices M5 (332 nm excitation; 488 nm emission; 518 nm fluorescein emission) is measured.", "units": {"IC50": "nM"}, "values": [{"smiles": "COc1c(CNC(=O)c2noc(C(C)(C)C)n2)ccc(-c2ncnn3cc(N4CCOCC4)cc23)c1F", "note": "[Example 223]", "IC50": "≤ 1"}, {"smiles": "Cc1cc(-c2ncnn3cc(C4=CCOCC4)cc23)ccc1CNC(=O)c1nc(C(C)(C)C)no1", "note": "[Example 103]", "IC50": "≤ 1"}, {"smiles": "Cn1cc(-c2cc3c(-c4ccc(CNC(=O)c5cnn(C(C)(C)C)c5)c(C(F)(F)F)c4)ncnn3c2)cn1", "note": "[Example 61, 1-(tert-butyl)-N-(4-(6-(1-methyl-1H-pyrazol-4-yl)pyrrolo[2,1-f][1,2,4]triazin-4-yl)-2-(trifluoromethyl)benzyl)-1H-pyrazole-4-carboxamide]", "IC50": "≤ 1"}, {"smiles": "COCCN(C)c1cc2c(-c3ccc(CNC(=O)c4noc(C(C)(C)C)n4)c(C)c3)ncnn2c1", "note": "[Example 174]", "IC50": "≤ 1"}, {"smiles": "C[C@@H](NC(=O)c1nnc(C(C)(C)C)o1)c1ccc(-c2ncnn3cc(N4CCOCC4)cc23)cc1Cl", "note": "[Example 204]", "IC50": "1 to 10"}, {"smiles": "CC=CC(=O)n1cc(-c2cc3c(-c4ccc(CNC(=O)c5noc(C(C)(C)C)n5)c(C)c4)ncnn3c2)cn1", "note": "[Example 147]", "IC50": "≤ 1"}, {"smiles": "COc1cc(-c2cc3c(-c4ccc(CNC(=O)c5noc(C(C)(C)C)n5)c(C)c4)ncnn3c2)ccn1", "note": "[Example 228]", "IC50": "≤ 1"}, {"smiles": "CC(C)(C)c1nc(C(=O)NCc2ccc(-c3ncnn4cc(N5CCOCC5)cc34)c(F)c2CC(F)F)no1", "note": "[Example 234]", "IC50": "1 to 10"}, {"smiles": "Cc1c(CNC(=O)c2nc(C(C)(C)C)no2)ccc(-c2ncnn3cc(N4CCN(C)[C@H](C)C4)cc23)c1F", "note": "(single isomer, unassigned) [Example 25]", "IC50": "≤ 1"}, {"smiles": "Cc1cc(-c2ncnn3cc(N4CCn5ccnc5C4)cc23)ccc1CNC(=O)c1noc(C(C)(C)C)n1", "note": "[Example 120]", "IC50": "≤ 1"}, {"smiles": "Cc1cc(-c2ncnn3cncc23)ccc1CNC(=O)c1noc(C(C)(C)C)n1", "note": "[Example 54]", "IC50": "1 to 10"}, {"smiles": "Cc1cc(-c2ncnn3cc(-c4cnn(C)c4C)cc23)ccc1CNC(=O)c1nnn(C(C)(C)C)n1", "note": "[Example 129]", "IC50": "≤ 1"}, {"smiles": "Cc1c(CNC(=O)c2noc(C(C)(C)C)n2)ccc(-c2ncnn3cccc23)c1F", "note": "[Example 218]", "IC50": "≤ 1"}, {"smiles": "Cc1cc(-c2ncnn3cc(N4CCN5CC(F)(F)C[C@H]5C4)cc23)ccc1CNC(=O)c1nc(C(C)(C)C)no1", "note": "[Example 123]", "IC50": "≤ 1"}, {"smiles": "COc1c(CNC(=O)c2noc(C(C)(C)C)n2)ccc(-c2ncnn3cccc23)c1F", "note": "[Example 180]", "IC50": "1 to 10"}, {"smiles": "Cc1cc(-c2ncnn3cc(C4CCN(C)C4)cc23)ccc1CNC(=O)c1noc(C(C)(C)C)n1", "note": "(centres unmarked) [Example 149]", "IC50": "1 to 10"}, {"smiles": "Cc1c(CNC(=O)c2cnn(C(C)(C)C)c2)ccc(-c2ncnn3cc(N4CCOCC4)cc23)c1F", "note": "[Example 88]", "IC50": "≤ 1"}, {"smiles": "CC(C)(C)c1nnc(C(=O)NCc2ccc(-c3ncnn4cc(N5CCOCC5)cc34)c(F)c2C(F)F)o1", "note": "[Example 199]", "IC50": "1 to 10"}, {"smiles": "CC(C)(C)c1noc(C(=O)NCc2ccc(-c3ncnn4cccc34)c(F)c2C2CC2)n1", "note": "[Example 153]", "IC50": "1 to 10"}, {"smiles": "CC(C)(C)c1nc(C(=O)NCc2ccc(-c3ncnn4cc(N5CCOCC5)cc34)c(F)c2C(F)F)no1", "note": "[Example 221]", "IC50": "≤ 1"}, {"smiles": "Cc1cc(-c2ncnn3cc(-c4cnn(C5CC5)c4)cc23)ccc1CNC(=O)c1noc(C(C)(C)C)n1", "note": "[Example 237]", "IC50": "≤ 1"}, {"smiles": "Cc1c(CNC(=O)c2noc(C(C)(C)C)n2)ccc(-c2ncnn3cc(-c4cnn(C)c4)cc23)c1F", "note": "[Example 112]", "IC50": "≤ 1"}, {"smiles": "Cc1cc(-c2ncnn3cccc23)ccc1CNC(=O)c1noc(C(C)(C)C)n1", "note": "[Example 151]", "IC50": "1 to 10"}, {"smiles": "Cc1cc(-c2ncnn3cc(-c4cnn(CC(F)F)c4)cc23)ccc1CNC(=O)c1cnn(C(C)(C)C)c1", "note": "[Example 145]", "IC50": "≤ 1"}, {"smiles": "Cc1cc(-c2cc3c(-c4ccc(CNC(=O)c5noc(C(C)(C)C)n5)c(C)c4)ncnn3c2)cnn1", "note": "[Example 170]", "IC50": "≤ 1"}, {"smiles": "Cc1cc(-c2ncnn3cc(OC4CCOCC4)cc23)ccc1CNC(=O)c1noc(C(C)(C)C)n1", "note": "[Example 79, 5-(tert-butyl)-N-(2-methyl-4-(6-((tetrahydro-2H-pyran-4-yl)oxy)pyrrolo[2,1-f][1,2,4]triazin-4-yl)benzyl)-1,2,4-oxadiazole-3-carboxamide]", "IC50": "1 to 10"}, {"smiles": "COC1CCN(c2cc3c(-c4ccc(CNC(=O)c5nc(C(C)(C)C)no5)c(C)c4)ncnn3c2)CC1", "note": "[Example 97]", "IC50": "≤ 1"}, {"smiles": "Cc1c(CNC(=O)c2nc(C(C)(C)C)no2)ccc(-c2ccnc3cc(N4CCOCC4)nn23)c1F", "note": "[Example 118]", "IC50": "1 to 10"}, {"smiles": "Cc1cc(-c2ccnc3ccnn23)ccc1CNC(=O)c1noc(C(C)(C)C)n1", "note": "[Example 50]", "IC50": "1 to 10"}, {"smiles": "Cn1cc(-c2cc3c(-c4ccc(CNC(=O)c5nc(C(C)(C)C)no5)c(CC(F)F)c4)ncnn3c2)cn1", "note": "[Example 207]", "IC50": "≤ 1"}, {"smiles": "CC(C)(C)c1noc(C(=O)NCc2ccc(-c3ncnn4cc(N5CCOCC5)cc34)cc2C(F)F)n1", "note": "[Example 192]", "IC50": "≤ 1"}, {"smiles": "CC(C)(C)c1noc(C(=O)NCc2ccc(-c3ncnn4cc(N5CCOCC5)cc34)cc2C2CC2)n1", "note": "[Example 206]", "IC50": "≤ 1"}, {"smiles": "CC(C)(C)c1nnc(C(=O)NCc2ccc(-c3ncnn4cc(C5=CCOCC5)cc34)cc2C(F)F)o1", "note": "[Example 213]", "IC50": "1 to 10"}, {"smiles": "COc1c(CNC(=O)c2nc(C(C)(C)C)no2)ccc(-c2ncnn3cc(N4CCOCC4)cc23)c1F", "note": "[Example 203]", "IC50": "≤ 1"}, {"smiles": "Cn1cc(-c2cc3c(-c4ccc(CNC(=O)c5noc(C(C)(C)C)n5)c(CC(F)F)c4)ncnn3c2)cn1", "note": "[Example 231]", "IC50": "≤ 1"}, {"smiles": "Cc1cc(-c2ncnn3cc(-c4ccc(C#N)cc4)cc23)ccc1CNC(=O)c1noc(C(C)(C)C)n1", "note": "[Example 225]", "IC50": "≤ 1"}, {"smiles": "Cc1cc(-c2ncnn3cc(N4CCOCC4)cc23)ccc1CNC(=O)c1nc(C(C)(C)C)no1", "note": "[Example 105]", "IC50": "≤ 1"}, {"smiles": "CC(C)(C)c1cc(C(=O)NCc2cc(F)c(-c3ncnn4cccc34)cc2Cl)no1", "note": "[Example 135]", "IC50": "> 10"}, {"smiles": "Cc1cc(-c2ncnn3cc(-c4cnn(C)c4)cc23)ccc1CNC(=O)c1noc(C(C)(C)C)n1", "note": "[Example 80, 5-(tert-butyl)-N-(2-methyl-4-(6-(1-methyl-1H-pyrazol-4-yl)pyrrolo[2,1-f][1,2,4]triazin-4-yl)benzyl)-1,2,4-oxadiazole-3-carboxamide]", "IC50": "≤ 1"}, {"smiles": "Cc1cc(-c2ncnn3cc(N4CCOCC4)cc23)ccc1CNC(=O)c1coc(C(C)(C)C)n1", "note": "[Example 176]", "IC50": "1 to 10"}, {"smiles": "Cn1cc(-c2cc3c(-c4ccc(CNC(=O)c5cn(C(C)(C)C)nn5)c(C(F)F)c4F)ncnn3c2)cn1", "note": "[Example 195]", "IC50": "1 to 10"}, {"smiles": "Cc1cc(-c2ncnn3cc(N4CCN(C)[C@H](C)C4)cc23)ccc1CNC(=O)c1nc(C(C)(C)C)no1", "note": "(single isomer, unassigned) [Example 27]", "IC50": "≤ 1"}, {"smiles": "CO[C@H]1CCN(c2cc3c(-c4ccc(CNC(=O)c5nc(C(C)(C)C)no5)c(C)c4)ncnn3c2)C1", "note": "(single isomer, unassigned) [Example 23]", "IC50": "≤ 1"}, {"smiles": "Cc1cc(-c2ncnn3cc(C4COC4)cc23)ccc1CNC(=O)c1noc(C(C)(C)C)n1", "note": "[Example 71, 5-(tert-butyl)-N-(2-methyl-4-(6-(oxetan-3-yl)pyrrolo[2,1-f][1,2,4]triazin-4-yl)benzyl)-1,2,4-oxadiazole-3-carboxamide trifluoroacetate]", "IC50": "> 10"}, {"smiles": "Cc1cc(-c2ncnn3cc(N4CC(CO)(CO)C4)cc23)ccc1CNC(=O)c1noc(C(C)(C)C)n1", "note": "[Example 73, N-(4-(6-(3,3-bis(hydroxymethyl)azetidin-1-yl)pyrrolo[2,1-f][1,2,4]triazin-4-yl)-2-methylbenzyl)-5-(tert-butyl)-1,2,4-oxadiazole-3-carboxamide]", "IC50": "≤ 1"}, {"smiles": "Cn1cc(-c2cc3c(-c4ccc(CNC(=O)c5cnn(C(C)(C)C)c5)c(C(F)F)c4)ncnn3c2)cn1", "note": "[Example 212]", "IC50": "≤ 1"}, {"smiles": "Cc1cc(-c2ncnn3cc(-c4cnn(C(F)F)c4)cc23)ccc1CNC(=O)c1noc(C(C)(C)C)n1", "note": "[Example 107]", "IC50": "≤ 1"}, {"smiles": "Cc1cc(-c2ncnn3ccc(C)c23)ccc1CNC(=O)c1noc(C(C)(C)C)n1", "note": "[Example 49]", "IC50": "1 to 10"}, {"smiles": "Cn1cc(-c2cc3c(-c4ccc(CNC(=O)c5nnc(C(C)(C)C)o5)c(C(F)F)c4)ncnn3c2)cn1", "note": "[Example 191]", "IC50": "≤ 1"}, {"smiles": "COc1cc(-c2ncnn3cc(-c4cnn(C)c4)cc23)ccc1CNC(=O)c1cn(C(C)(C)C)nn1", "note": "[Example 188]", "IC50": "1 to 10"}, {"smiles": "CC(C)(C)c1nc(C(=O)NCc2cc(F)c(-c3ncnn4cccc34)cc2Cl)no1", "note": "[Example 132]", "IC50": "1 to 10"}, {"smiles": "Cc1cc(-c2ncnn3cc(C(=O)N4CCOCC4)cc23)ccc1CNC(=O)c1noc(C(C)(C)C)n1", "note": "[Example 215]", "IC50": "> 10"}, {"smiles": "Cc1c(CNC(=O)c2noc(C(C)(C)C)n2)cc(F)c(-c2ncnn3cccc23)c1F", "note": "[Example 63, 5-(tert-butyl)-N-(3,5-difluoro-2-methyl-4-(pyrrolo[2,1-f][1,2,4]triazin-4-yl)benzyl)-1,2,4-oxadiazole-3-carboxamide hydrochloride]", "IC50": "1 to 10"}, {"smiles": "Cc1c(CNC(=O)c2noc(C(C)(C)C)n2)ccc(-c2ncnn3cc(N4CCOCC4)cc23)c1F", "note": "[Example 86]", "IC50": "≤ 1"}, {"smiles": "Cc1cc(-c2ncnn3cc(-c4cnn(C)c4)cc23)ccc1CNC(=O)c1ccn(C(C)(C)C)n1", "note": "[Example 168]", "IC50": "≤ 1"}, {"smiles": "Cc1cc(-c2ncnn3cc(N4CCOCC4)cc23)ccc1CNC(=O)c1ccn(C(C)(C)C)n1", "note": "[Example 175]", "IC50": "1 to 10"}]}]}
